The data set concerns the target HSD17B13. Conditions: ASO, HepaRG.

Consider 81 sequences from the OligoGym collection.

After the bases stand the sugars from the 5' end (letter, count) and the backbone: PS all phosphorothioate, else s phosphorothioate and o phosphodiester by linkage. Methylation of C is not given here. e = 2'-O-(2-methoxyethyl) (MOE); k = constrained ethyl (cEt); d = 2'-deoxy (DNA); m = 2'-O-methyl

Where the note is “1 µM”, CCAACTATGTAATAGG (sugars k3 d10 k3, PS) displayed a target mRNA inhibition of 68%. For the sequence GTAATAGCCAGTACAG (sugars k3 d10 k3, PS), the target mRNA inhibition turned out to be 0% (0.02 µM); 9% (0.078 µM); 45% (0.313 µM); 77% (1 µM); 69% (1.25 µM); 84% (5 µM). Sequence AGATGGTAAGGAGTAG (sugars k3 d10 k3, PS) yielded a target mRNA inhibition (1 µM) of 26%.

In the case of TTTAGTCAGGTAGAGT (sugars k3 d10 k3, PS), the target mRNA inhibition (1 µM) stood at 30%. On the same count and under the same terms, under AGAGTTATCTGGTTTG (sugars k3 d10 k3, PS) stands 56%. ACTTTCATAGGGAGAC (sugars k3 d10 k3, PS): the target mRNA inhibition is, setting by setting: (0.02 µM) 0%; (0.078 µM) 8%; (0.313 µM) 25%; (1 µM) 80%; (1.25 µM) 69%; (5 µM) 83%. Regarding GCCCTAGATTCTACAC (sugars k3 d10 k3, PS), the target mRNA inhibition (1 µM) was 15%. On the same count and under the same terms, under ACATATACAGACTAAG (sugars k3 d10 k3, PS) stands 46%. “AAACAAGAGGATAGTC (sugars kkdddddddddkekek, PS)” gave a target mRNA inhibition (1 µM) of 52%. In the case of GGCCAAGGGAACACTG (sugars k3 d10 k3, PS), the target mRNA inhibition (1 µM) stood at 36%. “CAGTTTTCCTCATGAT (sugars k3 d9 k3 e1, PS)” displayed a target mRNA inhibition (1 µM) of 65%. Turning to GTAAATTCTTGCTATC (sugars k3 d10 k3, PS), the target mRNA inhibition (1 µM) was determined as 40%.

As to TGGAGGAAAGCTTCAA (sugars k3 d10 k3, PS), where the note is “1 µM”, the target mRNA inhibition was 10%. CTAACCAATTATATGA (sugars k3 d10 k3, PS) registered a target mRNA inhibition (1 µM) of 21%. As for AAGTTTTTAAGAGGCA (sugars k3 d10 k3, PS), the target mRNA inhibition by setting is: (0.02 µM) 0%; (0.078 µM) 0%; (0.313 µM) 43%; (1 µM) 77%; (1.25 µM) 73%; (5 µM) 96%. Regarding ATTCGAATTTCTTCAA (sugars k3 d10 k3, PS), the target mRNA inhibition (1 µM) is 65%.

Regarding TGTCAGAGACTCTGTG (sugars k3 d10 k3, PS), under “1 µM”, the target mRNA inhibition came to 39%. On to “AAACATCTCTGGGACC (sugars k3 d9 k3 e1, PS)”, for which the target mRNA inhibition (1 µM) came to 48%. CTTGAACAGTCTTAAA (sugars k3 d10 k3, PS) showed a target mRNA inhibition (1 µM) of 39%. Take CTATCAACCTGCACAC (sugars k3 d10 k3, PS): the target mRNA inhibition (1 µM) stood at 39%. In turn, AATCTAGCAACCTCTA (sugars k3 d10 k3, PS) displayed a target mRNA inhibition (1 µM) of 22%. In the case of TATTTCGCTACTGTAG (sugars k3 d10 k3, PS), the target mRNA inhibition (1 µM) is 48%.

For the sequence “TGGCATGGCTACAGAT (sugars kkdddddddddkekek, PS)”, the target mRNA inhibition (1 µM) was found to be 58%. TACATTAGCAAGCTAA (sugars k3 d10 k3, PS) came in with a target mRNA inhibition (1 µM) of 29%. Sequence TCAAATGAGGCGGCAC (sugars k3 d10 k3, PS) came in with a target mRNA inhibition (1 µM) of 46%. Turning to “CTTTTTATAGACTGGG (sugars kkdddddddddkekek, PS)”, the target mRNA inhibition (1 µM) came to 37%.

The sequence CCCAATTATGAATCTG (sugars k3 d10 k3, PS) returned a target mRNA inhibition (1 µM) of 62%. Same read-out and setting: under AGATTGGAATGCTACT (sugars k3 d10 k3, PS) stands 63%; under GATGTAGTGGGAGTCG (sugars k3 d10 k3, PS), 67%.

Sequence “TGTCUAAACATCTCTG (sugars k3 d1 m1 d8 k3, PS)” returned a target mRNA inhibition (1 µM) of 44%. Still for that read-out and setting: in the case of AGCTACCTCCAAATTC (sugars k3 d10 k3, PS) it was 0%; in that of TCTAAACATCTCTGGG (sugars k3 d10 k3, PS), 40%.

CTCAAATGAGGCGGCA (sugars k3 d10 k3, PS) displayed a target mRNA inhibition (1 µM) of 56%.

Turning to TGGCCGCACACTGAAG (sugars k3 d10 k3, PS), the target mRNA inhibition (1 µM) came out at 0%. Regarding CAGAATAGAGTTGCAC (sugars k3 d10 k3, PS), the target mRNA inhibition (1 µM) was 50%.

For the setting “1 µM”, TAAGGCAAAGATCTGG (sugars k3 d10 k3, PS) registered a target mRNA inhibition of 46%. Take GACTACATTAACACCA (sugars k3 d10 k3, PS): under “1 µM”, the target mRNA inhibition turned out to be 58%.

Under “1 µM”, “GTTGAGATAAAGCTGC (sugars k3 d9 k3 e1, PS)” gave a target mRNA inhibition of 59%.

As for GATATTATGTTCTTGG (sugars k3 d10 k3, PS), where the note is “1 µM”, the target mRNA inhibition came to 59%.

In turn, “GTCACCTTTCATAATG (sugars kkdddddddddkekek, PS)” displayed a target mRNA inhibition (1 µM) of 4%. For the setting “1 µM”, “ACATUAGCAAGCTAAG (sugars k3 d1 m1 d8 k3, PS)” gave a target mRNA inhibition of 23%. As for ACCAAACTTGCCCATA (sugars k3 d10 k3, PS), where the note is “1 µM”, the target mRNA inhibition worked out at 46%.

ATCTGTCTCCAATACA (sugars k3 d10 k3, PS): the target mRNA inhibition (1 µM) turned out to be 55%. Sequence CCAAGGCCTGAAGTTC (sugars k3 d10 k3, PS) showed a target mRNA inhibition (1 µM) of 20%. For TAGCTAAGGGAGAGTG (sugars k3 d10 k3, PS), the target mRNA inhibition (1 µM) came out at 9%. On the same count and under the same terms, under “TACTTGAACAGTCTTA (sugars k3 d9 k3 e1, PS)” stands 65%. GTTACATTACAGCCTT (sugars k3 d10 k3, PS): the target mRNA inhibition (0.02 µM) came to 0%; the target mRNA inhibition (0.078 µM) was 18%; the target mRNA inhibition (0.313 µM) was 50%; the target mRNA inhibition (1 µM) is 71%; the target mRNA inhibition (1.25 µM) was determined as 73%; the target mRNA inhibition (5 µM) amounted to 86%. Consider AATTTATTGGTATGGT (sugars k3 d10 k3, PS), for which the target mRNA inhibition (1 µM) worked out at 30%. Where the note is “1 µM”, CTTAGTACCAAGACAC (sugars k3 d10 k3, PS) came in with a target mRNA inhibition of 60%. In turn, TCATAAGTAGTCTGCC (sugars k3 d10 k3, PS) gave a target mRNA inhibition (1 µM) of 62%. In turn, TAATTTTCGGGTTCTT (sugars k3 d10 k3, PS) returned a target mRNA inhibition (1 µM) of 40%. The sequence CAAGTAGGAGTAGATG (sugars k3 d10 k3, PS) came in with a target mRNA inhibition (1 µM) of 5%. In turn, GAACAATCTCCCCAGC (sugars k3 d10 k3, PS) returned a target mRNA inhibition (1 µM) of 63%. Same read-out and setting: under ACTGACAACCCTTAAC (sugars k3 d10 k3, PS) stands 10%; under CCTAGGATGTTGACCT (sugars k3 d10 k3, PS), 3%; under ATTAGAAGTCAGCCCA (sugars k3 d10 k3, PS), 42%. In the case of “AAACATCTCTGGGACC (sugars k3 d1 m1 d8 k3, PS)”, the target mRNA inhibition (1 µM) is 66%. Same read-out and setting: in the case of “AATTCACCTTGACTAA (sugars k3 d9 k3 e1, PS)” it was 16%.

Regarding TAAAATAGAGTCGGTC (sugars k3 d10 k3, PS), the target mRNA inhibition is, setting by setting: (0.02 µM) 1%; (0.078 µM) 9%; (0.313 µM) 47%; (1 µM) 81%; (1.25 µM) 80%; (5 µM) 90%. For the sequence TCACATATGTGAAGAG (sugars k3 d10 k3, PS), for the setting “1 µM”, the target mRNA inhibition is 27%. On the same count and under the same terms, in the case of “TTAAUGCCACCCTACC (sugars k3 d1 m1 d8 k3, PS)” it was 8%. The same measure, in the same setting: in the case of CTATTGATTGGCTTAA (sugars k3 d10 k3, PS) it was 31%. For the sequence TAATAGCCAGTACAGT (sugars k3 d10 k3, PS), where the note is “1 µM”, the target mRNA inhibition stood at 64%.

With GATTGAGTTCTCCACT (sugars k3 d10 k3, PS), the target mRNA inhibition (1 µM) came out at 45%. The same measure, in the same setting: in the case of ATTGATATACGATGGA (sugars k3 d10 k3, PS) it was 31%; in that of AACATAGGCTTAGTGT (sugars k3 d10 k3, PS), 18%. ACAGATTGGAATGCTA (sugars k3 d10 k3, PS): the target mRNA inhibition (1 µM) came to 50%. As to “CTCTTAGCTGTGCACT (sugars kkdddddddddkekek, PS)”, the target mRNA inhibition (1 µM) turned out to be 56%. Under “1 µM”, ATTCACCACGATTGTT (sugars k3 d10 k3, PS) yielded a target mRNA inhibition of 0%. Sequence TCCATCTATCAGACTT (sugars k3 d10 k3, PS) returned a target mRNA inhibition (1 µM) of 42%. The sequence TCAAGACATTCTAGCC (sugars k3 d10 k3, PS) returned a target mRNA inhibition (1 µM) of 79%. Same read-out and setting: under AGCTGAGTGGATTACA (sugars k3 d10 k3, PS) stands 29%; under “AACATCTCTGGGACCA (sugars kkdddddddddkekek, PS)”, 36%; under ATTACATATCAATGCC (sugars k3 d10 k3, PS), 36%. Where the note is “1 µM”, ATGTAATAGCCAGTAC (sugars k3 d10 k3, PS) gave a target mRNA inhibition of 52%.

For the sequence “TAGCTTTTGTCCACCT (sugars kkdddddddddkekek, PS)”, the target mRNA inhibition by setting is: (0.02 µM) 0%; (0.078 µM) 3%; (0.313 µM) 29%; (1 µM) 71%; (1.25 µM) 53%; (5 µM) 48%. For the sequence TTACATTACAGCCTTA (sugars k3 d10 k3, PS), the target mRNA inhibition turned out to be 0% (0.02 µM); 0% (0.078 µM); 19% (0.313 µM); 67% (1 µM); 56% (1.25 µM); 80% (5 µM).

GTATAAATGGCAATTC (sugars k3 d10 k3, PS) yielded a target mRNA inhibition (1 µM) of 56%.

Sequence ATAGTAATTGCTATAG (sugars k3 d10 k3, PS) displayed a target mRNA inhibition (1 µM) of 36%. With GGCTGGATATACTGTC (sugars k3 d10 k3, PS), the target mRNA inhibition (1 µM) was determined as 18%. In turn, ATTATATGAGGTCTGT (sugars k3 d10 k3, PS) had a target mRNA inhibition (1 µM) of 59%.
